Data published in the supplement of paper PMC10307832.

Tests used:
Test in all cases: relative viability (nuclei count vs DMSO), 5 days (fraction); higher = more cells survive
[1] = compound: CCC1=CN=CN=C1N2CCN(CC2)CC3=NC4=C(N3)C=C(C=C4)C(F)(F)F + CCNC(=O)c1noc(-c2cc(C(C)C)c(O)cc2O)c1-c1ccc(CN2CCOCC2)cc1 [Luminespib] (partner 0.01 µM)
How it was run: (§1)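 A single step with final 0.05% Triton X-100, 1% formaldehyde and 1 ug/ml Hoechst fixed the cells and stained nuclei 5 days after treatment. Lung cancer cell lines in 1536-well plates had been treated by pin tool the day after seeding with one drug alone or a fixed anchor-drug dose plus five library-drug doses (not always all listed) in √10 steps, and nuclei were counted on 4× images. Relative viability is the ratio of nuclei in treated wells to nuclei in vehicle wells, taken as the median of duplicate plates.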

[2] = compound: CCC1=CN=CN=C1N2CCN(CC2)CC3=NC4=C(N3)C=C(C=C4)C(F)(F)F + O=C(CCCCCCC(=O)Nc1ccccc1)NO [Vorinostat] (partner 1 µM)
How it was run: as §1

[3] = compound: CCn1c(-c2nonc2N)nc2cnc(Oc3cccc(NC(=O)c4ccc(OCCN5CCOCC5)cc4)c3)cc21 + CC(C)C[C@H](NC(=O)[C@H](Cc1ccccc1)NC(=O)c1cnccn1)B(O)O [Bortezomib] (partner 0.002 µM)
How it was run: as §1

[4] = compound: CCC1=CN=CN=C1N2CCN(CC2)CC3=NC4=C(N3)C=C(C=C4)C(F)(F)F + CC(=O)c1c(C)c2cnc(Nc3ccc(N4CCNCC4)cn3)nc2n(C2CCCC2)c1=O [Palbociclib] (partner 0.5 µM)
How it was run: as §1

## UMC-11
[1]; first compound 0.04 µM
  relative viability: 0.974
[1]; first compound 0.1265 µM
  relative viability: 1.05
[1]; first compound 0.4 µM
  relative viability: 0.917
[1]; first compound 1.265 µM
  relative viability: 0.902
[1]; first compound 4 µM
  relative viability: 0.746
[2]; first compound 0.04 µM
  relative viability: 0.357
[2]; first compound 0.1265 µM
  relative viability: 0.359
[2]; first compound 0.4 µM
  relative viability: 0.376
[2]; first compound 1.265 µM
  relative viability: 0.304
[2]; first compound 4 µM
  relative viability: 0.316
[3]; first compound 0.04 µM
  relative viability: 0.999
[3]; first compound 0.1265 µM
  relative viability: 0.439
[3]; first compound 0.4 µM
  relative viability: 0.312
[3]; first compound 1.265 µM
  relative viability: 0.161
[3]; first compound 4 µM
  relative viability: 0.135
[4]; first compound 0.04 µM
  relative viability: 0.331
[4]; first compound 0.1265 µM
  relative viability: 0.315
[4]; first compound 0.4 µM
  relative viability: 0.306
[4]; first compound 1.265 µM
  relative viability: 0.221
[4]; first compound 4 µM
  relative viability: 0.257
